# In patent US4923852A, “Aminoalkyl naphthalenediols as host resistance enhancers against viral infections” (Merck & Co., Inc., priority 1987, dated 1990):
# Entries after “also recorded” stand apart in the source; their conditions may differ. Like-named read-outs stand apart in the source and are kept apart here.
# How the values were obtained:
# [1] = cited from earlier work
# [2] = test system: AIDS or AIDS-related complex (ARC); conditions: clinical; cited from earlier work
# [3] = test system: HIV reverse transcriptase; conditions: cited from earlier work
# [4] = test system: Pseudomonas aeruginosa; test: In vivo immunopotentiation against challenge with lethal doses of Pseudomonas aeruginosa, cyclophosphamide-immunocompromised mouse; design: species or system mouse (random outbred albino CFl female); conditions: 250 mg/kg cyclophosphamide i.p., 4 days prior to challenge
# Protocol: An immunocompromised mouse model, established by intraperitoneal treatment of random outbred albino CFl female mice (ca. 25g) with 250 mg/kg body weight of cyclophosphamide (CY) 4 days Prior to bacterial challenge with Pseudomonas aeruginosa, was used as the assay system. In this model, test compounds were injected only once (2 hours) after CY treatment. After bacterial challenge, LD50 's (50% lethal doses) were determined. Increased LD50 's in treated mice over controls indicated a return to normality. The LD50 for untreated or vehicle-treated mice was routinely 10^6 -10^7 colony forming units (CFU) of P. aeruginosa organisms. After CY treatment, the LD50 was reduced to 10^1 to 10^2 CFU's. The protection afforded by test compound (Protective Index) was determined by calculating the number of LD50 's of protection of treated animals over the LD50 of CY controls.
# [5] = in vivo, cited from earlier work
# [6] = test system: T cell levels; conditions: 13 AIDS patients with perpetually swollen glands; cited from earlier work
# [7] = test system: HIV; conditions: clinical; cited from earlier work
# [8] = test system: reverse transcriptase in several retroviruses; conditions: in vitro; cited from earlier work
# [9] = test system: HIV; conditions: cited from earlier work
# [10] = test system: AIDS-related Kaposi's sarcoma; conditions: some AIDS-related Kaposi's sarcoma cases; cited from earlier work
compound,measurement,setting,value
CC(C)(N1CC1C#N)N1CC1C(N)=O (stereo not shown) [Azimexon],adverse / toxic effects in humans,[1]; clinical,only toxic effect was mild hemolysis
same,efficacy in AIDS or ARC patients,[2],improvements in symptoms and immune function in patients with ARC but not AIDS
"CC(=O)Nc1ccc(C(=O)O)cc1.CC(=O)Nc1ccc(C(=O)O)cc1.CC(=O)Nc1ccc(C(=O)O)cc1.CC(O)CN(C)C.CC(O)CN(C)C.CC(O)CN(C)C.O=c1[nH]cnc2c1ncn2[C@@H]1O[C@H](CO)[C@@H](O)[C@H]1O [Inosine pranobex, p-Acetamidobenzoic acid salt of dimethylaminoisopropanol: inosinate complex]",effect on immune function in patients,[2],improve immune function in ARC patients
Cc1ccc(C(=O)Nc2ccc(S(=O)(=O)O)c3cc(S(=O)(=O)O)cc(S(=O)(=O)O)c23)cc1NC(=O)c1cccc(NC(=O)Nc2cccc(C(=O)Nc3cc(C(=O)Nc4ccc(S(=O)(=O)O)c5cc(S(=O)(=O)O)cc(S(=O)(=O)O)c45)ccc3C)c2)c1 [Suramin],efficacy in AIDS or ARC patients,[2],little or no evidence of clinical improvement or immunologic recovery
same,inhibition of HIV reverse transcriptase,[3],Potent inhibitor of HIV reverse transcriptase
"CO[C@H]1/C=C/O[C@@]2(C)Oc3c(C)c(O)c4c(c3C2=O)C2=NC3(CCN(CC(C)C)CC3)NC2=C(NC(=O)/C(C)=C\C=C\[C@H](C)[C@H](O)[C@@H](C)[C@@H](O)[C@@H](C)[C@H](OC(C)=O)[C@@H]1C)C4=O [Ansamycin, rifabutin]",efficacy in AIDS or ARC patients,[2],some efficacy in treating AIDS patients with an opportunistic infection caused by the bacterium Mycobacterium aviumintracellulare
O=P1(N(CCCl)CCCl)NCCCO1 (stereo not shown) [cyclophosphamide],LD50 of P. aeruginosa after CY treatment,[4],10^1 to 10^2 CFU
"O=C(O)P(=O)(O)O [Foscarnet, trisodium phosphonoformate]",adverse / toxic effects in humans,[1]; in vivo,serious side effects
same,inhibition of HIV reverse transcriptase,[3],Inhibits HIV reverse transcriptase activity in vitro at levels pharmacologically acceptable in vivo
"Cc1cn([C@H]2C[C@H](N=[N+]=[N-])[C@@H](CO)O2)c(=O)[nH]c1=O [Azidothymidine, 3'-azido-3'-deoxythymidine]",adverse / toxic effects in humans,[1]; clinical,"some toxicity, with anemia and headaches"
same,oral absorption,[5]; po,Well absorbed orally
same,half-life in the body,[5],relatively short half-life
same,penetration of central nervous system,[5],effectively penetrates central nervous system
same,efficacy in AIDS or ARC patients,[2],promise in prolonging lives of patients with AIDS or AIDS-related complex (ARC)
"CC(C)(S)[C@@H](N)C(=O)O [D-Penicillamine, 3-mercapto-D-valine]",effect on T cell levels,[6],temporarily depressed T cell levels
same,effect on HIV reproduction / viral replication in humans,[7],Inhibits HIV reproduction in humans; also recorded: suppressed the virus
ammonium 21-tungsto-9-antimoniate [HPA-23],inhibition of reverse transcriptase in several retroviruses,[8],Inhibits reverse transcriptase in several retroviruses in vitro
same,efficacy in AIDS or ARC patients,[2],no therapeutic benefit has been documented in AIDS patients
same,effect on HIV infectivity / growth,[9],some tendency to check the growth of HIV
"NC(=O)c1ncn([C@@H]2O[C@H](CO)[C@@H](O)[C@H]2O)n1 [Ribavirin, 1-β-D-ribofuranosyl-1,2,4-triazole-3-carboxamide]",safety profile,[1]; in vivo,acceptable
same,tolerability,[1]; in vivo,well tolerated
same,effect on immune function in patients,[2],improved immune function in AIDS patients
same,effect on HIV reproduction / viral replication in humans,[7],inhibited viral replication
α-Interferon,tumor regression,[10],induced tumor regression in some AIDS-related Kaposi's sarcoma cases
same,effect on HIV infectivity / growth,[9],Checks the growth of HIV in vitro
